# Measured values published in PubChem BioAssay (NCI).
# “And” between values parts separate entries of the source, which are not always exact repeats. Equal entries are not always repeated.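 Grown in 96-well plates, cells were treated for 48 hours with each compound at five concentrations. Insufficient inhibition: endpoint recorded as highest concentration tested. TGI: total growth inhibition.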
# Tests used:
# Test in all cases: NCI-60 cell line screen, 48 h
# ACHN renal = tested on: ACHN renal
# COLO 205 colon = tested on: COLO 205 colon
# DLD-1 colon = tested on: DLD-1 colon
# DMS 114 small cell lung = tested on: DMS 114 small cell lung
# HOP-18 NSCLC = tested on: HOP-18 NSCLC
# LXFL 529 NSCLC = tested on: LXFL 529 NSCLC
# M19-MEL melanoma = tested on: M19-MEL melanoma
# SK-MEL-2 melanoma = tested on: SK-MEL-2 melanoma
# SN12C renal = tested on: SN12C renal
# SNB-75 CNS = tested on: SNB-75 CNS
# SNB-78 CNS = tested on: SNB-78 CNS
# XF 498 CNS = tested on: XF 498 CNS
# CCRF-CEM leukemia = tested on: CCRF-CEM leukemia
# DMS 273 small cell lung = tested on: DMS 273 small cell lung
# KM20L2 colon = tested on: KM20L2 colon
# UACC-62 melanoma = tested on: UACC-62 melanoma
SMILES,TGI (ACHN renal) [µM],TGI (COLO 205 colon) [µM],TGI (DLD-1 colon),TGI (DMS 114 small cell lung) [µM],TGI (HOP-18 NSCLC) [µM],TGI (LXFL 529 NSCLC) [µM],TGI (M19-MEL melanoma) [µM],TGI (SK-MEL-2 melanoma) [µM],TGI (SN12C renal) [µM],TGI (SNB-75 CNS) [µM],TGI (SNB-78 CNS) [µM],TGI (XF 498 CNS) [µM],TGI (CCRF-CEM leukemia),TGI (DMS 273 small cell lung) [µM],TGI (KM20L2 colon) [µM],TGI (UACC-62 melanoma) [µM]
Cn1ccnc1C(O)(c1nccn1C)c1nccn1C,> 100,> 100,> 100 µM,> 100,> 100,> 100,> 100,> 100,> 100,> 100,> 100,> 100,–,–,–,–
CC12CCC3C(CCC4CC(OC(=O)Cc5ccc(N(CCCl)CCCl)cc5)CCC43C)C1CCC(=O)N2 (configuration not stated),23.2,31.1,33 µM,25.6,31.2,30,33.5,29.8,29.6,28.9,40.7,30.8,22.7 µM,25.6,31.2,–
COc1cc2c(cc1OC)[C@H]1CN3CCC[C@H]3C=C1c1ccc(OC)c(O)c1-2,0.0154,0.00119,0.0109 µM and 0.0123 µM,0.00014,0.000181,–,< 0.0001,0.000975,–,–,0.00049,–,0.0376 µM and 0.35 µM,0.000139,–,0.000267
C=Cc1ccc(C)[n+](C[Si](C)(C)O[Si](C)(C)C[n+]2cc(C=C)ccc2C)c1,> 100,> 100,> 100 µM,> 100,> 100,> 100,> 100,> 100,> 100,> 100,> 100,–,> 100 µM,> 100,> 100,> 100
CC(=O)OCC1OC(n2cc(I)c(=O)[nH]c2=O)C(OC(C)=O)C(OC(C)=O)C1OC(C)=O (configuration not stated),> 100,> 100,> 100 µM,> 100,> 100,> 100,> 100,> 100,> 100,> 100,–,> 100,> 100 µM,> 100,> 100,> 100
CC(O)CCCOC(c1ccccc1)(c1ccccc1)c1ccccc1 (configuration not stated),27.8,39.3,31.5 µM,26.4,–,27.9,31,29.5,30.6,25.8,29.3,28.2,> 67.2 µM,–,22.3,27
CC(C(=O)N1C(=O)N(C(=O)C(C)C(O)c2ccccc2)C2CCCCC21)C(O)c1ccccc1 (configuration not stated),> 100,> 100,–,–,–,> 100,> 100,> 100,> 100,–,> 100,> 100,> 100 µM,> 100,> 100,> 100
CCN1CCCC(NCc2c3ccccc3c(CNC3CCCN(CC)C3)c3ccccc23)C1 (configuration not stated),–,12.7,69.5 µM,16.1,> 46.6,–,17.6,11.7,40.3,25,> 73.1,> 52.1,41.4 µM,18.2,20.9,26.8
CCC1=CC2CN3Cn4c(c(COCc5c6n(c7ccccc57)CN5CC7C=C(CC)C5C6(C(=O)OC)C7)c5ccccc54)C(C(=O)OC)(C2)C13,> 100,> 100,> 100 µM,> 100,–,> 100,> 100,> 100,> 100,–,–,> 100,> 100 µM,> 100,> 100,> 100
c1csc(-c2ccc(-c3cccs3)c3nsnc23)c1,> 100,27.1,–,–,–,–,–,> 100,> 100,> 100,–,–,31.5 µM,–,–,> 100
CC[n+]1[b-](C(C)(C)C)n(/N=C/C(C)(C)C)[b-](C(C)(C)C)[n+]1CC,> 100,> 100,–,–,–,–,–,> 100,> 100,> 100,–,–,> 100 µM,–,–,> 100
COc1ccc(CC2c3c(cc(OC)c(OC)c3OC)CCN2C)cc1OC (configuration not stated),> 100,–,> 100 µM,–,> 100,> 100,–,> 100,> 100,> 100,> 100,> 100,> 100 µM,–,> 100,–
S=c1[nH]c2ccc(Br)cc2c(=S)s1,56.7,32.2,–,–,–,–,–,61.8,46.5,93,–,–,> 100 µM,–,–,50.7
COc1cc2nc(-c3cccs3)oc(=O)c2cc1OC,> 100,> 100,–,–,–,–,–,> 100,> 100,> 100,–,–,> 100 µM,–,–,> 100
COC(C)(C)[C@@H](O)[C@H]1C[C@H](C)[C@@]2(CC[C@]3(C)[C@@H]2CC[C@@H]2[C@@]4(C)CC[C@@H](OC(C)=O)C(C)(C)[C@@H]4C[C@@H](OC4OC(COC(C)=O)C(O)C(O)C4O)[C@]23C)O1 (some centres not stated),18.3,6.18,–,–,–,–,–,19.7,19.4,16.5,–,–,> 37 µM,–,–,18.6
